The subject of the series is CCRIS mutagenicity, Ames/micronucleus/aberration tests. Nature of the series: CCRIS mutagenicity studies.
The mark [1] stands for this setting: Test System: AMES SALMONELLA TYPHIMURIUM, Strain/Indicator: TA97, Metabolic Activation: NONE, Method: PREINCUBATION
Setting [2] is: Test System: AMES SALMONELLA TYPHIMURIUM, Strain/Indicator: TA98, Metabolic Activation: NONE, Method: PREINCUBATION
Setting [3] is: Test System: AMES SALMONELLA TYPHIMURIUM, Strain/Indicator: TA100, Metabolic Activation: NONE, Method: PREINCUBATION
Setting [4] is: Test System: AMES SALMONELLA TYPHIMURIUM, Strain/Indicator: TA1535, Metabolic Activation: NONE, Method: PREINCUBATION
[5] abbreviates: Test System: AMES SALMONELLA TYPHIMURIUM, Strain/Indicator: TA1537, Metabolic Activation: NONE, Method: PREINCUBATION
The mark [6] stands for this setting: Test System: AMES SALMONELLA TYPHIMURIUM, Strain/Indicator: TA98, Metabolic Activation: NONE, Method: STANDARD PLATE.
The mark [7] stands for this setting: Test System: AMES SALMONELLA TYPHIMURIUM, Strain/Indicator: TA100, Metabolic Activation: NONE, Method: STANDARD PLATE.
Setting [8] is: Test System: AMES SALMONELLA TYPHIMURIUM, Strain/Indicator: TA98, Metabolic Activation: RAT, LIVER, S-9, AROCLOR 1254, Method: STANDARD PLATE.
Where [9] appears, read: Test System: AMES SALMONELLA TYPHIMURIUM, Strain/Indicator: TA100, Metabolic Activation: RAT, LIVER, S-9, AROCLOR 1254, Method: STANDARD PLATE.

Active and inactive are the calls of the source. The rule behind the calls is not given here.

Take `NC(N)=NC(=O)c1nc(Cl)c(N)nc1N`: the mutagenic call is “inactive; negative” (Test System: AMES SALMONELLA TYPHIMURIUM, Strain/Indicator: TA97, Metabolic Activation: HAMSTER, LIVER, S-9, AROCLOR 1254 (5, 10 OR 30%), Method: PREINCUBATION); “inactive; negative” under setting [1]; “inactive; negative” (Test System: AMES SALMONELLA TYPHIMURIUM, Strain/Indicator: TA97, Metabolic Activation: RAT, LIVER, S-9, AROCLOR 1254 (5, 10 OR 30%), Method: PREINCUBATION); “inactive; negative” (Test System: AMES SALMONELLA TYPHIMURIUM, Strain/Indicator: TA98, Metabolic Activation: HAMSTER, LIVER, S-9, AROCLOR 1254 (30%), Method: PREINCUBATION); “inactive; negative” under setting [2]; “inactive; negative” (Test System: AMES SALMONELLA TYPHIMURIUM, Strain/Indicator: TA98, Metabolic Activation: RAT, LIVER, S-9, AROCLOR 1254 (30%), Method: PREINCUBATION). The mutagenic call was “inactive; negative” (Test System: AMES SALMONELLA TYPHIMURIUM, Strain/Indicator: TA100, Metabolic Activation: HAMSTER, LIVER, S-9, AROCLOR 1254 (30%), Method: PREINCUBATION); “inactive; negative” under setting [3]; “inactive; negative” (Test System: AMES SALMONELLA TYPHIMURIUM, Strain/Indicator: TA100, Metabolic Activation: RAT, LIVER, S-9, AROCLOR 1254 (30%), Method: PREINCUBATION); “inactive; negative” (Test System: AMES SALMONELLA TYPHIMURIUM, Strain/Indicator: TA1535, Metabolic Activation: HAMSTER, LIVER, S-9, AROCLOR 1254 (30%), Method: PREINCUBATION); “inactive; negative” under setting [4]; “inactive; negative” (Test System: AMES SALMONELLA TYPHIMURIUM, Strain/Indicator: TA1535, Metabolic Activation: RAT, LIVER, S-9, AROCLOR 1254 (30%), Method: PREINCUBATION). Also, the mutagenic call (Test System: AMES SALMONELLA TYPHIMURIUM, Strain/Indicator: TA1537, Metabolic Activation: HAMSTER, LIVER, S-9, AROCLOR 1254 (30%), Method: PREINCUBATION) was “active; positive”; the mutagenic call under setting [5] is “active; positive”; the mutagenic call (Test System: AMES SALMONELLA TYPHIMURIUM, Strain/Indicator: TA1537, Metabolic Activation: RAT, LIVER, S-9, AROCLOR 1254 (30%), Method: PREINCUBATION) is “active; positive”.
On to `CCCC(=O)OCC`, for which the mutagenic call by setting is: under setting [1], “inactive; negative”; (Test System: AMES SALMONELLA TYPHIMURIUM, Strain/Indicator: TA97, Metabolic Activation: RAT, LIVER, S-9, AROCLOR 1254, Method: PREINCUBATION) “inactive; negative”; (Test System: AMES SALMONELLA TYPHIMURIUM, Strain/Indicator: TA102, Metabolic Activation: NONE, Method: PREINCUBATION) “inactive; negative”; (Test System: AMES SALMONELLA TYPHIMURIUM, Strain/Indicator: TA102, Metabolic Activation: RAT, LIVER, S-9, AROCLOR 1254, Method: PREINCUBATION) “inactive; negative”.
For the molecule `OCCO`, the mutagenic call runs as follows: (Test System: AMES SALMONELLA TYPHIMURIUM, Strain/Indicator: TA98, Metabolic Activation: HAMSTER, LIVER, S-9, AROCLOR 1254 (10%), Method: PREINCUBATION) “inactive; negative”; under setting [2], “inactive; negative”; (Test System: AMES SALMONELLA TYPHIMURIUM, Strain/Indicator: TA98, Metabolic Activation: RAT LIVER S-9, PHENOBARBITAL AND BETA-NAPHTHOFLAVONE, Method: PREINCUBATION) “inactive; negative”; (Test System: AMES SALMONELLA TYPHIMURIUM, Strain/Indicator: TA98, Metabolic Activation: RAT, LIVER, S-9, AROCLOR 1254 (10%), Method: PREINCUBATION) “inactive; negative”; (Test System: AMES SALMONELLA TYPHIMURIUM, Strain/Indicator: TA100, Metabolic Activation: HAMSTER, LIVER, S-9, AROCLOR 1254 (10%), Method: PREINCUBATION) “inactive; negative”; under setting [3], “inactive; negative”. In addition, the mutagenic call (Test System: AMES SALMONELLA TYPHIMURIUM, Strain/Indicator: TA100, Metabolic Activation: RAT LIVER S-9, PHENOBARBITAL AND BETA-NAPHTHOFLAVONE, Method: PREINCUBATION) was “inactive; negative”; the mutagenic call (Test System: AMES SALMONELLA TYPHIMURIUM, Strain/Indicator: TA100, Metabolic Activation: RAT, LIVER, S-9, AROCLOR 1254 (10%), Method: PREINCUBATION) is “inactive; negative”; the mutagenic call (Test System: AMES SALMONELLA TYPHIMURIUM, Strain/Indicator: TA1535, Metabolic Activation: HAMSTER, LIVER, S-9, AROCLOR 1254 (10%), Method: PREINCUBATION) is “inactive; negative”; the mutagenic call under setting [4] was “inactive; negative”; the mutagenic call (Test System: AMES SALMONELLA TYPHIMURIUM, Strain/Indicator: TA1535, Metabolic Activation: RAT LIVER S-9, PHENOBARBITAL AND BETA-NAPHTHOFLAVONE, Method: PREINCUBATION) was “inactive; negative”; the mutagenic call (Test System: AMES SALMONELLA TYPHIMURIUM, Strain/Indicator: TA1535, Metabolic Activation: RAT, LIVER, S-9, AROCLOR 1254 (10%), Method: PREINCUBATION) was “inactive; negative”. The mutagenic call reads like this: (Test System: AMES SALMONELLA TYPHIMURIUM, Strain/Indicator: TA1537, Metabolic Activation: HAMSTER, LIVER, S-9, AROCLOR 1254 (10%), Method: PREINCUBATION) “inactive; negative”; under setting [5], “inactive; negative”; (Test System: AMES SALMONELLA TYPHIMURIUM, Strain/Indicator: TA1537, Metabolic Activation: RAT LIVER S-9, PHENOBARBITAL AND BETA-NAPHTHOFLAVONE, Method: PREINCUBATION) “inactive; negative”; (Test System: AMES SALMONELLA TYPHIMURIUM, Strain/Indicator: TA1537, Metabolic Activation: RAT, LIVER, S-9, AROCLOR 1254 (10%), Method: PREINCUBATION) “inactive; negative”; (Test System: E.COLI, Strain/Indicator: WP2UVRA, Metabolic Activation: NONE, Method: PREINCUBATION) “inactive; negative”; (Test System: E.COLI, Strain/Indicator: WP2UVRA, Metabolic Activation: RAT LIVER S-9, PHENOBARBITAL AND BETA-NAPHTHOFLAVONE, Method: PREINCUBATION) “inactive; negative”. Further, the mutagenic call (Test System: MOUSE LYMPHOMA, Strain/Indicator: L5178Y (TK+/TK-), Metabolic Activation: NONE, Method: SUSPENSION/PLATE) was “inactive; negative” and the mutagenic call (Test System: MOUSE LYMPHOMA, Strain/Indicator: L5178Y (TK+/TK-), Metabolic Activation: RAT, LIVER, S-9, AROCLOR 1254, Method: SUSPENSION/PLATE) was “inactive; negative”.
Regarding `OCc1cccc2c1-c1cccc3cccc-2c13`, the mutagenic call reads like this: under setting [6], “inactive; negative”; under setting [7], “inactive; negative”.
On to `CC(C)NCC(O)COc1cccc2c1C=CC2` (stereo not given), for which the mutagenic call was “inactive; negative” under setting [6]; “inactive; negative” under setting [8]; “inactive; negative” under setting [7]; “inactive; negative” under setting [9]; “inactive; negative” (Test System: AMES SALMONELLA TYPHIMURIUM, Strain/Indicator: TA102, Metabolic Activation: NONE, Method: STANDARD PLATE); “inactive; negative” (Test System: AMES SALMONELLA TYPHIMURIUM, Strain/Indicator: TA102, Metabolic Activation: RAT, LIVER, S-9, AROCLOR 1254, Method: STANDARD PLATE).
Regarding `Cc1cccc2cc3ccccc3cc12`, the mutagenic call under setting [6] is “inactive; negative”, the mutagenic call under setting [8] is “inactive; negative”, the mutagenic call under setting [7] was “inactive; negative” and the mutagenic call under setting [9] is “inactive; negative”.
Regarding `Cc1cc(C)c2c(ccc3ccccc32)c1`, the mutagenic call under setting [6] is “inactive; negative”, the mutagenic call under setting [8] was “inactive; negative”, the mutagenic call under setting [7] is “inactive; negative” and the mutagenic call under setting [9] is “active; positive”.

The values are drawn from PubChem BioAssay AID1259407 (Chemical Carcinogenesis Research Information System (CCRIS), 2018).
